Source: US12414947B2, “Use of FGFR inhibitors for treatment of idiopathic short stature” (CEDARS-SINAI MEDICAL CENTER, priority 2019, dated 2025)

How the values were obtained:
[1] = Example 3: child with short stature given erdafitinib; assay type: in vivo, human; settings: six-month period, from the 10%
From the text: A child presents with short stature. […] Their height growth velocity increased resulting in a jump in height from the 10% up to the 50% for their age.

[2] = tested on: Patient normal fibroblasts; test: Immunoblot analysis for apoptosis markers (FIG. 5); assay type: cell-based, human
From the text: FIG. 5 depicts the effects on apoptosis.

[3] = tested on: pERK1/2 and pAKT signaling in Patient normal fibroblast cells; settings: IGF-I 100 ng/ml, IGF-2 100 ng/ml; erdafitinib 0-300 nM
From the text: FIG. 4 depicts signaling effects. […] Test working hypothesis using Patient's normal fibroblast cells as the model system. Fibroblasts, grown in αMEM+15% FBS till ˜80% confluency, were serum-starve for 18 hr in αMEM+0.1% BSA.
In vitro assays, with read-outs: signaling (pERK, pAKT), proliferation/survival assays (WST-1).

[4] = tested on: Patient normal fibroblast cells; test: Cell Survival Assay (WST-1) (FIGS. 6, 7); assay type: cell-based, human
Procedure: Fibroblasts were seeded 5×10^4 cells/well (96 well format), grow in αMEM+15% for 24 hr. […] WST-1 reagent was added, 10 μl/well, 1 hr, spectrophotometry analysis. 3 wells per test sample. NC, normal control.
Assay set up as described in FIG. 6, except IGF-I (100 ng/ml), IGF2 (100 ng/ml) or FGF2 (40 ng/ml) added as indicated. Cell survival was assayed over 5 days.

[5] = Case report: height growth of patient CC0419 during erdafitinib therapy; assay type: in vivo, human
From the text: FIG. 1 depicts a child's growth chart.
(§1) […], they underwent a biopsy for a second recurrence.

[6] = in vivo
From the text: as §1

COc1cc(OC)cc(N(CCNC(C)C)c2ccc3ncc(-c4cnn(C)c4)nc3c2)c1 [Erdafitinib, erdafitinib]
height percentile for age [1]: 50%
apoptotic markers, cleaved Caspase 3 and cleaved PARP ([2]; by 24 hrs, erdafitinib treated cells without IGF-I): detected
apoptotic markers when IGF-I was present ([2]; lysates 24 and 48 hr post-treatment, IGF-I 100 ng/ml): not detected (or significantly blunted)
pERK1/2 in presence of ligands (IGF-1, IGF2) [3]: remains erdafitinib-suppressed
cell survival (WST-1) ([4]; 0-300 nM, 1-5 days, serum-free media, 5×10^4 cells/well): dose-dependently decreased survival
survival of erdafitinib-treated cells with growth factors (WST-1) ([4]; IGF-I 100 ng/ml, IGF2 100 ng/ml or FGF2 40 ng/ml, over 5 days): IGF-I, but not FGF2, has significant protective effects
total growth in height ([5]; 9-month therapy (7 mg then 5 mg orally daily) plus one month after cessation): 14.3 cm
total growth in height ([5]; 9-month therapy plus one month after cessation): 5.63 inches
height percentile ([5]; 10 months from initiation of treatment, from 15th percentile): 70 percentile
growth velocity ([5]; on therapy, from 3.653 cm/year before): 18.06 cm/year
growth velocity (percentile) ([5]; on therapy, from 40% before, wildtype germline FGFR): > 99%
height percentile ([5]; starting ~2 months into therapy, from ~15 percentile): 23 percentile
height percentile ([5]; within one month of initiating treatment, from 15th percentile, child): 48 percentile
Dexa bone scan interpretation [6]: consistent with osteoporosis
GH, random (rating) [6]: normal
IGF-1 Z-score [6]: −1.7
IGF-I SDS [6]: −1.4 SDS
IGF-II (rating) [6]: normal
IGFBP-3 (rating) [6]: normal
Metabolic panel: creatine (rating) [6]: below normal
RDW (red cell distribution width) [6]: 16.4%
Testosterone, free and total (rating) [6]: abnormally low
bone age [6]: ~14 year
bone age delay compared to CA (x-ray hand and wrist) [6]: ~2 yrs
bone age, standard deviation below the mean [6]: greater than 2 standard deviation
events that led to discontinuation [6]: scoliosis of the thoracic region, kyphosis of the upper cervical region, and hip flexion contractures
hyperphosphatemia [6]: Transient hyperphosphatemia
lumbar spine bone density, standard deviations below mean for age-matched population [6]: 3.8 standard deviations
mean bone density value for the lumbar spine (Dexa) [6]: 0.6322 gm/sq·cm
musculoskeletal problems [6]: rapid growth and kyphosis/scoliosis which required surgery
x-ray hand and wrist finding: osteochondrosis [6]: A suggestion of osteochondrosis
x-ray hand and wrist finding: periosteal reaction [6]: Periosteal reaction (distal radius, ulna, first metacarpal)
adverse events that led to dose reduction ([6]; po): musculoskeletal pain and high phosphorus levels
